{
  "source": "paper PMC9112550",
  "about": "“Optimization of the antimicrobial peptide Bac7 by deep mutational scanning” (BMC Biology, 2022)",
  "key": {"E. coli TOP10 [1]": {"system": "E. coli TOP10", "assay_type": "cell-based", "details": "data not shown", "experimental": "Bacterial cells were grown in cation-adjusted Mueller Hinton Broth (MHB II) overnight to stationary phase. The cultures were then supplemented with 200 g l^−1 glycerol, aliquoted, and frozen at −80°C. […] The purified peptides were thawed and the concentration was determined by RP-HPLC as described before. The peptides were diluted with sterile water to 4-fold the desired assays starting concentration and to a final volume of 50 μl. […] The first well of each MIC dilution series was filled with 20 μl of 2-fold concentrated MHB II, wells 2–11 with 20 μl of MHB II, and well 12 with 40 μl MHB II (sterility control). Next, 20 μl of the peptide dilution was added to the first well, mixed, and a log2-serial dilution was performed from wells 1 to 10 (20 μl transfer volume). Well 11 served as growth control (i.e., no peptide added). In the last step, 20 μl of the bacterial cell suspension was added to wells 1–11 either using the pipetting robot (E. coli TOP10, BW25113, BW25113 ΔsbmA, and ATCC 25922) or by manual pipetting (E. coli clinical isolates). The plates were sealed airtight and incubated for 18 h without shaking at 37°C before reading the OD using an Infinite 200 PRO plate reader (Tecan, Männedorf, CH). […] All MIC experiments were determined in technical replicate."}, "E. coli TOP10 [2]": {"system": "E. coli TOP10", "assay": "Membrane damage assay in MHB II (GFP loss, PI uptake)", "assay_type": "cell-based", "details": "at its MIC"}},
  "data": [
    {"compound": "CC[C@H](C)[C@H](NC(=O)CN)C(=O)NCC(=O)N[C@@H](C)C(=O)N[C@H](C(=O)N[C@@H](CC(C)C)C(=O)N[C@@H](CCCCN)C(=O)N[C@H](C(=O)N[C@@H](CC(C)C)C(=O)N[C@H](C(=O)N[C@H](C(=O)NCC(=O)N[C@@H](CC(C)C)C(=O)N1CCC[C@H]1C(=O)N[C@@H](C)C(=O)N[C@@H](CC(C)C)C(=O)N[C@H](C(=O)N[C@@H](CO)C(=O)N[C@@H](Cc1c[nH]c2ccccc12)C(=O)N[C@H](C(=O)N[C@@H](CCCCN)C(=O)N[C@@H](CCCNC(=N)N)C(=O)N[C@@H](CCCCN)C(=O)N[C@@H](CCCNC(=N)N)C(=O)N[C@@H](CCC(N)=O)C(=O)N[C@@H](CCC(N)=O)C(N)=O)[C@@H](C)CC)[C@@H](C)CC)[C@@H](C)O)[C@@H](C)O)C(C)C)C(C)C", "note": "[melittin]", "values": [
      {"measurement": "MIC", "setting": "E. coli TOP10 [1]", "result": 5.0, "unit": "µM"},
      {"measurement": "PI uptake and loss of GFP", "setting": "E. coli TOP10 [2]", "result": "rapidly induced PI uptake and loss of GFP"}
    ]}
  ]
}
